What was measured:
[1] = biological target: T1, NUAK family SNF1-like kinase 1 (Homo sapiens) (UniProt O60285); assay: Inhibition of human ARK5 at 18.6 nM by HotSpot assay relative to control
T1 sequence (whole entry): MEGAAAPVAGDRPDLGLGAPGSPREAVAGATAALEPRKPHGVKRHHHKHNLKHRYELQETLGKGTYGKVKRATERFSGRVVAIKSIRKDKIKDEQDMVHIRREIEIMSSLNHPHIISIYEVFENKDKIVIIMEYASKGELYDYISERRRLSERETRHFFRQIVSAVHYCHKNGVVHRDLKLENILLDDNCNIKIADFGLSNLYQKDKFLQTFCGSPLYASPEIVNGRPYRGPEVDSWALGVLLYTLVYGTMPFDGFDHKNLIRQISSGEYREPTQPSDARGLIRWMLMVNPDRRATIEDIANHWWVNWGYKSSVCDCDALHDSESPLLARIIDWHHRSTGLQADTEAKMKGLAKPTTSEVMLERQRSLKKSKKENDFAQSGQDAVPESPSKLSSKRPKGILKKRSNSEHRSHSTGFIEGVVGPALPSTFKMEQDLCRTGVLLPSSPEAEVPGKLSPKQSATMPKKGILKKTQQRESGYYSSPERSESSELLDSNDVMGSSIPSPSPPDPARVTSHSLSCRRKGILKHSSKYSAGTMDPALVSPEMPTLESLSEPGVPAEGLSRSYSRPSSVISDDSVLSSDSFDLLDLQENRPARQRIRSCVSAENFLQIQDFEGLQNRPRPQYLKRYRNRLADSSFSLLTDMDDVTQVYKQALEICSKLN

[2] = biological target: Calcium/calmodulin-dependent protein kinase type II subunit beta (Homo sapiens) (UniProt Q13554); assay: Inhibition of human CAMK2b at 18.6 nM by HotSpot assay relative to control
Chain of Calcium/calmodulin-dependent protein kinase type II subunit beta (Homo sapiens) (Q13554 whole entry): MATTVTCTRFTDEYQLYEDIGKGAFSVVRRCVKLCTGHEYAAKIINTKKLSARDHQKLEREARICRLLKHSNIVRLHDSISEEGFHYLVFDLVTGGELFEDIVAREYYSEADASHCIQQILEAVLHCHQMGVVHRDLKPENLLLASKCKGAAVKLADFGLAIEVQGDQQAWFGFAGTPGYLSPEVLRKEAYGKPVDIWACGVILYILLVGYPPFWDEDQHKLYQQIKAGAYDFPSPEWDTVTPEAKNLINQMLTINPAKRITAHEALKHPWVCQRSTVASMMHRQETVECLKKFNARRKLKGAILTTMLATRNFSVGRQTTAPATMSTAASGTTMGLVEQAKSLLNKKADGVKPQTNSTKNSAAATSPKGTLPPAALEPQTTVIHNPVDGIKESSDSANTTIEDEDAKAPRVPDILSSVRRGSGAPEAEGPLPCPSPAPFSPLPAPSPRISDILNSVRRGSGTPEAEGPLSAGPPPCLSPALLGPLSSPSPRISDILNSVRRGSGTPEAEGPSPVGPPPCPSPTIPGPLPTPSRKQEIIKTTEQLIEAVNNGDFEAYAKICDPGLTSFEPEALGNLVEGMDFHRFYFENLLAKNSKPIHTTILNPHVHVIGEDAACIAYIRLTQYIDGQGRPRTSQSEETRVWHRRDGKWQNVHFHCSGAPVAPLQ

[3] = biological target: T2, Testis-specific serine/threonine-protein kinase 2 (Homo sapiens) (UniProt Q96PF2); assay: Inhibition of human TSSK2 at 1.82 nM by HotSpot assay relative to control
T2 sequence (whole entry): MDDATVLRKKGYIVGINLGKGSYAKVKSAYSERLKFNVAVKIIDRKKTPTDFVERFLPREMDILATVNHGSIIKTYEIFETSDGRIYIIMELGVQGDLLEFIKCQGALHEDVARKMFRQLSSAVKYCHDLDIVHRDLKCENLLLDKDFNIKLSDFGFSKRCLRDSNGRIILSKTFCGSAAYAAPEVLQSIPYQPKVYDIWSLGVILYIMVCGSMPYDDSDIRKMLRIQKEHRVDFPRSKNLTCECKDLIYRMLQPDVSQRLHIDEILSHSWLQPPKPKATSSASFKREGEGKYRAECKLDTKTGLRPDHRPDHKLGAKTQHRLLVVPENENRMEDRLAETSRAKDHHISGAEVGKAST

[4] = biological target: T3, Tyrosine-protein kinase receptor TYRO3 (Homo sapiens) (UniProt Q06418); assay: Inhibition of human SKY at 1.82 nM by HotSpot assay relative to control
T3 sequence (whole entry): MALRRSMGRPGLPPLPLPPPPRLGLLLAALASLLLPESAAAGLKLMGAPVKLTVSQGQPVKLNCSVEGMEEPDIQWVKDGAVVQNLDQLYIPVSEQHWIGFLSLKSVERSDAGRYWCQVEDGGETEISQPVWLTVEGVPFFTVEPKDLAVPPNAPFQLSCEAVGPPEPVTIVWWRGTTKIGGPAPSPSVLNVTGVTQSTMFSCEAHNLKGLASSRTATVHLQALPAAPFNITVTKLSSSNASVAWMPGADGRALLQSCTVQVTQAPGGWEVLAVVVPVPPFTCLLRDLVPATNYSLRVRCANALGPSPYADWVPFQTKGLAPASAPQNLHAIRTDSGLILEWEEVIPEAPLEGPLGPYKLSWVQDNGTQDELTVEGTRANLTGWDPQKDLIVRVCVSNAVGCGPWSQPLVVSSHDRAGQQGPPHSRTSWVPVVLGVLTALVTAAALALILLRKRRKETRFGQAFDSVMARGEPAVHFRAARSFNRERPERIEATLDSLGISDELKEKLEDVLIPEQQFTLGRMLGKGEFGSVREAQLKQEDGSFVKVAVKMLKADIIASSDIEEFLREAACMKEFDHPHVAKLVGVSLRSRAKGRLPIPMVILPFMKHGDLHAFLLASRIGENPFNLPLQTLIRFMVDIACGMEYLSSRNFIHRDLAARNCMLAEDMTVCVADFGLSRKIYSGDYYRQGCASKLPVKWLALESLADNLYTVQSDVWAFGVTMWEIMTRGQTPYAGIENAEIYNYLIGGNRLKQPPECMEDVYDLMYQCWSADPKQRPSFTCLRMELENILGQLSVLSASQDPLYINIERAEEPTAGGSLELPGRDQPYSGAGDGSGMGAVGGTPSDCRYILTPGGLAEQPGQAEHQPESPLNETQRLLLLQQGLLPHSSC

inhibition [1]	inhibition [2]	inhibition [3]	inhibition [4]	SMILES
-1.57%	-1.75%			C[C@]1(O)C[C@@H](c2nc(-c3ccc4ccc(-c5ccccc5)nc4c3)c3c(N)nccn32)C1
		-1.46%	-1.49%	C[C@@]1(C(=O)Nc2ccc(F)nc2)CCCN1c1nc(Nc2cc(C3CC3)n[nH]2)c2cccn2n1

From ChEMBL document CHEMBL5653615 (J Biol Chem, 2013)
